Reference: article PMC9313566 (Basic & Clinical Pharmacology & Toxicology, 2022)
pKd: −log10 of the molar value.

These compounds were tested against haemoglobin (Hb) (Homo sapiens, UniProt P68871+P69905) (assay: SPR).
Format: binding

haemoglobin (Hb), sequence (P69905 2-142): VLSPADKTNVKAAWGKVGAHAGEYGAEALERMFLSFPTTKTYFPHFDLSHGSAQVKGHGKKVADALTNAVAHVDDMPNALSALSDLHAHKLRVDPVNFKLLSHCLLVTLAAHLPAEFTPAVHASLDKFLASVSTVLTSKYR
haemoglobin (Hb), sequence (P68871 2-147): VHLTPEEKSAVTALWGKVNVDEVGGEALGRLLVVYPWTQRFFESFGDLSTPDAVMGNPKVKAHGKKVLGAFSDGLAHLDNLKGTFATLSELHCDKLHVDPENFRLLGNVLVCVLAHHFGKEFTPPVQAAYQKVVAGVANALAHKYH

| pKd | SMILES |
| --- | --- |
| 5.42 | C/C1=C\CC[C@H](C)C(=O)C[C@@H](C(C)C)C(=O)C1 [curdione] |
| 4.74 | C/C1=C\Cc2c(C)coc2C/C(C)=C/CC1 [furanodiene] |
| 4.12 | CC(C)=C1C/C=C(\C)CC/C=C(\C)CC1=O [germacrone] |
| 5.64 | C=C[C@]1(C)CC[C@@H](C(=C)C)C[C@H]1C(=C)C [β-elemene] |
